Blank lines part the entries; values can stand above or below the molecule they belong to.
What was measured:
cHuNAGS (linker-cleaved) [1] = biological target: T1, cHuNAGS (linker-cleaved) (Homo sapiens, UniProt Q8N159); assay: biochemical
T1 sequence (Q8N159 95-534): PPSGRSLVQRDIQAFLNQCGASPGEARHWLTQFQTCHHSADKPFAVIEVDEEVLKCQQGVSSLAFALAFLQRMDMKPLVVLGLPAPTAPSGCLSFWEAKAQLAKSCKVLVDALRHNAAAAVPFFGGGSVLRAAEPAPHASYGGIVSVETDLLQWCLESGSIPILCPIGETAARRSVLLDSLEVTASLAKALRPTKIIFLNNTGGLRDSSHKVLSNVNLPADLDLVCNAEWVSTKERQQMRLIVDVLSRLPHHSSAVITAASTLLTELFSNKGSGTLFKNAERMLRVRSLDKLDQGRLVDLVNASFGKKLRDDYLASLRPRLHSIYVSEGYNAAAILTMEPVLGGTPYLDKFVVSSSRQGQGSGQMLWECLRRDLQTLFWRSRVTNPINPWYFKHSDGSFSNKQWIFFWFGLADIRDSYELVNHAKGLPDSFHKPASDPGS

cHuNAGS (linker-cleaved) [2] = biological target: cHuNAGS (linker-cleaved) (Homo sapiens, UniProt Q8N159, V350I); assay: biochemical
SEC = biological target: the molecule itself; assay: SEC

cHuNAGS (linker-cleaved) (Homo sapiens, UniProt Q8N159, V350I), sequence (Q8N159 95-534 V350I): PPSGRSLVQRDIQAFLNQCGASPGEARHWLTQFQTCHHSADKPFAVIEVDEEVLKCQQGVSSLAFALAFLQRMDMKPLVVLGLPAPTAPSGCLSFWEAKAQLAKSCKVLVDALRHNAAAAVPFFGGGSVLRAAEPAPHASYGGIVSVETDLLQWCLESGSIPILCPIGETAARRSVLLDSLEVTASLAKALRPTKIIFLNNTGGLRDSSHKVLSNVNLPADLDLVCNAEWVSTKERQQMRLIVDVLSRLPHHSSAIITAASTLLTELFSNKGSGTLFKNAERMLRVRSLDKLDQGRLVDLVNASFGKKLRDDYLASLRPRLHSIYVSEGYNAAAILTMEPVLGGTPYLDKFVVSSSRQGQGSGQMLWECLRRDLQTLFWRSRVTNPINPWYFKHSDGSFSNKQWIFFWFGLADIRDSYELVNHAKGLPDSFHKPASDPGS

- EC50 (cHuNAGS (linker-cleaved) [1]): ~20 µM
- EC50 (cHuNAGS (linker-cleaved) [2]): > 4000 µM
Molecule: N=C(N)NCCC[C@H](N)C(=O)O [arginine]

B1: His6-MBP-cHuNAGS chimera (wild-type) (domain or fragment, human)
chain: LEVLFQGPMPPSGRSLVQRDIQAFLNQCGASPGEARHWLTQFQTCHHSADKPFAVIEVDEEVLKCQQGVSSLAFALAFLQRMDMKPLVVLGLPAPTAPSGCLSFWEAKAQLAKSCKVLVDALRHNAAAAVPFFGGGSVLRAAEPAPHASYGGIVSVETDLLQWCLESGSIPILCPIGETAARRSVLLDSLEVTASLAKALRPTKIIFLNNTGGLRDSSHKVLSNVNLPADLDLVCNAEWVSTKERQQMRLIVDVLSRLPHHSSAVITAASTLLTELFSNKGSGTLFKNAERMLRVRSLDKLDQGRLVDLVNASFGKKLRDDYLASLRPRLHSIYVSEGYNAAAILTMEPVLGGTPYLDKFVVSSSRQGQGSGQMLWECLRRDLQTLFWRSRVTNPINPWYFKHSDGSFSNKQWIFFWFGLADIRDSYELVNHAKGLPDSFHKPASDPGS
- binding result (SEC): binds

From paper PMC11586601 (Journal of Inherited Metabolic Disease, 2024)
